test: recombinant barcode read abundance after kanamycin selection (control-corrected) (log10(CPM+1)); higher = more efficient recombination; sequences stand for … in AGTGCAGAGAAAATCGGCCAGTTTTCTCTGCCTGCAGTCCGCATGCCGT…AGATTTATGCAGCGGACTGCCTTTCTCCCAAAGTGATAAACCGGACAGTATCATGGACCGGTTTTCCCGGTAATCCGTATTTGCAAGGTTGGTTTCACT; site = the 11-nt target
Outline: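 Pooled E. coli screen pairing targets with IS621 bridge RNA target-binding loops. Each oligo (promoter, target, barcode, J23119-driven first 104 bridge RNA bases) was Gibson-cloned into a vector with the remaining 73 bp and T7-inducible recombinase, then co-electroporated with a donor plasmid. Two replicates each were plated on chloramphenicol/ampicillin LB agar (control) or chloramphenicol/ampicillin/kanamycin with 0.1 mM IPTG. Recombination efficiency is recombinant-junction barcode counts as CPM, averaged, control-corrected, reported as log10(CPM+1).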
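Further: IS621 recombinase and bridge RNA in Escherichia coli cells.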

Sequence	recombinant barcode read abundance (log10)
TACGCGGCTTGGGTTCTAACCTGTTGCCT (site TACGGGGCTAG)	0.208
GGAAGACCTTGGGTTCTAACCTGTTGCTA (site GGAAGACCTTA)	0.956
TCGGCTCCTTGGGTTCTAACCTGTTGCCT (site TCGGCTCCTAG)	0.712
TAGACTACTTGGGTTCTAACCTGTTGCTC (site TAGACTACTGA)	0.123
GAGGAAGCTTGGGTTCTAACCTGTTGCCT (site GCGGAAGCTAG)	0.545
CAACACTCTTGGGTTCTAACCTGTTGCCT (site CGACACTCTAG)	0.102
GCAATTACTTGGGTTCTAACCTGTTGCTT (site TGGGGCCCTCG)	0.078
AGTAAGGCTTGGGTTCTAACCTGTTGCCT (site AGTAAGCCTTG)	0.44
ACAATAGCTTGGGTTCTAACCTGTTGCTG (site ACATTAGCTCA)	0.0649
GGCCGGCCTTGGGTTCTAACCTGTTGCCT (site GGCCGGCCTAG)	0.128
TAGACAGCTTGGGTTCTAACCTGTTGCCT (site TAAACAGCTAG)	0.143
ACATGCACTTGGGTTCTAACCTGTTGCAT (site ACATGGACTAT)	0.0168
GTTAGAGCTTGGGTTCTAACCTGTTGCCT (site GTTTGAGCTAG)	0.225
TATTCTCCTTGGGTTCTAACCTGTTGCTT (site TATTCTCCTAG)	0.0207
GATCGCGCTTGGGTTCTAACCTGTTGCCT (site GATCGAGCTAG)	0.133
CTGCCCGCTTGGGTTCTAACCTGTTGCCT (site GTGCTCGCTAG)	0.366
CCGTGGACTTGGGTTCTAACCTGTTGCCA (site CCGTGGACTTG)	0.42
TGTGTCTCTTGGGTTCTAACCTGTTGCGT (site TCTGTCTCTAG)	0.363
TCCCGCCCTTGGGTTCTAACCTGTTGCCT (site GCACGCCCTAG)	0.0125
TGAACTCCTTGGGTTCTAACCTGTTGCCT (site GTAACTCCTAG)	0.118
AGCACAACTTGGGTTCTAACCTGTTGCCT (site AGTACAACTAG)	0.498
CTAACCTCTTGGGTTCTAACCTGTTGCAT (site CTACCCTCTAT)	0.0596

Sequence	recombinant barcode read abundance (log10)
GGACTAACTTGGGTTCTAACCTGTTGCCT (site AGACTAACTAA)	0.126
ACGGTCACTTGGGTTCTAACCTGTTGCCT (site ATGGTCACTAG)	0.869
AGCCCTCCTTGGGTTCTAACCTGTTGCTG (site AGCCCTCCTAA)	0.0691
GATCGCGCTTGGGTTCTAACCTGTTGCCT (site GATCGCGCTAG)	0.231
GATGTATCTTGGGTTCTAACCTGTTGCCT (site GAGGTAGCTAG)	0.0384
CAAACCGCTTGGGTTCTAACCTGTTGCCT (site CGAACCGCTAG)	0.356
CGTGAACCTTGGGTTCTAACCTGTTGCGT (site CGTCAACCTAC)	0.34
CCTCGCACTTGGGTTCTAACCTGTTGCGA (site CCTGGCACTTC)	0.0155
TAGAATCCTTGGGTTCTAACCTGTTGCAC (site TAGAATCCTTT)	0.103
GTCGTGTCTTGGGTTCTAACCTGTTGCCG (site GTCGTGTCTCG)	1.28
ACGCCGACTTGGGTTCTAACCTGTTGCCT (site ACGCGGACTAG)	0.285
CTTGGGCCTTGGGTTCTAACCTGTTGCCT (site CTTGGGCCTAG)	0.417
GTGCACCCTTGGGTTCTAACCTGTTGCTT (site GTGCACCCTAA)	1.57
GGTCGACCTTGGGTTCTAACCTGTTGCCT (site GGTCGACCTAG)	0.898
GGAAGACCTTGGGTTCTAACCTGTTGCTA (site GGAGGACCTAA)	0.246
CGTTCATCTTGGGTTCTAACCTGTTGCCT (site CGTTCATCTAG)	0.0763
ACGGGATCTTGGGTTCTAACCTGTTGCCT (site TCGGGATCTAG)	0.0975
TAGCTCCCTTGGGTTCTAACCTGTTGCCA (site TAGCTCCCTAG)	0.676
GCAAGGACTTGGGTTCTAACCTGTTGCAG (site GCATGGACTCT)	0.587
AGGTCTACTTGGGTTCTAACCTGTTGCAC (site AGGTCTACTGT)	0.521
GCGGGGTCTTGGGTTCTAACCTGTTGCTT (site GCGGGGTCTAA)	2.2
GACTGTTCTTGGGTTCTAACCTGTTGCCT (site GGCTGTTCTAG)	0.202

Sequence	recombinant barcode read abundance (log10)
CTAACTCCTTGGGTTCTAACCTGTTGCTG (site CTAACTCCTCA)	0.12
CCACTCCCTTGGGTTCTAACCTGTTGCCT (site CCACTCCCTAG)	0.0427
CGGCACACTTGGGTTCTAACCTGTTGCCT (site CGTCACACTAG)	0.00935
CTTCAATCTTGGGTTCTAACCTGTTGCCT (site CTTCAATCTAG)	0.267
CAGCGTGCTTGGGTTCTAACCTGTTGCCT (site CTGCGTGCTAG)	0.612
AGTCGACCTTGGGTTCTAACCTGTTGCCT (site CGTCGACCTAG)	0.328
CTCTAGACTTGGGTTCTAACCTGTTGCGT (site CTCTAGACTAC)	2.01
ACGTCGTCTTGGGTTCTAACCTGTTGCCT (site AGGTCGTCTAG)	0.102
GTGGGCCCTTGGGTTCTAACCTGTTGCCT (site GTGGGCCCTAG)	2.07
ATCGGTCCTTGGGTTCTAACCTGTTGCCT (site ATGGGTCCTAG)	0.0682
AGGTTCCCTTGGGTTCTAACCTGTTGCTC (site AGGTTCCCTTA)	0.026
CATCGATCTTGGGTTCTAACCTGTTGCGT (site CTTTGATCTAC)	0.0816
CTATATGCTTGGGTTCTAACCTGTTGCTT (site CTATATGCTAA)	0.613
GGGTTCGCTTGGGTTCTAACCTGTTGCCT (site GGGTTCGCTAG)	1.93
GCGGGATCTTGGGTTCTAACCTGTTGCCT (site CCGGGATCTAG)	0.258
GGTCGCCCTTGGGTTCTAACCTGTTGCGT (site GGTCGCCCTAC)	1.43
GTACGATCTTGGGTTCTAACCTGTTGCAA (site GTACGGTCTAT)	0.291
ATAGGTACTTGGGTTCTAACCTGTTGCTT (site CTAGGTACTAA)	0.534
ATAACAGCTTGGGTTCTAACCTGTTGCCT (site ATAACAGCTAG)	1.43
TTACGTGCTTGGGTTCTAACCTGTTGCGG (site TTACGAGCTCC)	0.271
TCCTGAGCTTGGGTTCTAACCTGTTGCTG (site TCCTGAGCTCA)	0.405
GGATGTCCTTGGGTTCTAACCTGTTGCGT (site GGATGTCCTAC)	1.95

— the supplement of paper PMC11208160
